Measurements: patent US12187728B2 (Raze Therapeutics, Inc., priority 2015, dated 2025)

Target: T1, Human MTHFD2 (Homo sapiens, UniProt P13995)
T1 construct: residues 36-350 in Uniport ID P13995; His6 (N); made in house; host or cells: E. coli
T1 sequence (P13995 36-350): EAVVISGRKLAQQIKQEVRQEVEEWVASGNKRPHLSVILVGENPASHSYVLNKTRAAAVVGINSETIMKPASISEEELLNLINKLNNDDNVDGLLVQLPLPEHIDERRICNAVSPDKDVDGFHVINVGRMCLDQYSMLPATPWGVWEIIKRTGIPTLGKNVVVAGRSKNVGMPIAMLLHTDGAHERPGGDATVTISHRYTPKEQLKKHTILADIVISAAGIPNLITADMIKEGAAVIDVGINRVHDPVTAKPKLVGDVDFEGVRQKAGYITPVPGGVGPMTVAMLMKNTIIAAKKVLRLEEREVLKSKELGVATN
Assay: MTHFD2 Activity Assay (dehydrogenase activity, diaphorase/resazurin coupled fluorescence)
Type: biochemical
Settings: inhibitory activity (IC50 and/or binding constant); 0.2 nM MTHFD2, 11 concentrations
Procedure, shortened: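 Resorufin fluorescence (ex 525, em 598 nm) reports NADH formed by the dehydrogenase via diaphorase coupling. Enzyme (0.2 nM, residues 36-350, N-His6) sat with compound 15 min before 70 μM CH2-THF and 1 mM NAD+ started a 30 min reaction. IC50s come from 4-parameter fits over 11 concentrations.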

Row | Structure (SMILES) | IC50 [µM]
1 | Cn1c(N[C@@H]2CCCC[C@H]2O)nc2c1c(=O)n(Cc1ccc(Cl)c(Cl)c1)c(=O)n2C [Example 108, 1-(3,4-dichlorobenzyl)-8-((1R,2R)-2-hydroxycyclohexylamino)-3,7-dimethyl-1H-purine-2,6(3H,7H)-dione] | 1 to 5
2 | Cn1c(N[C@@H]2CC[C@H](C(=O)O)C2)nc2c1c(=O)n(Cc1ccc(C(F)(F)F)cc1)c(=O)n2C [Example 77, (1S,3R)-3-[(3,7-dimethyl-2,6-dioxo-1-{[4-(trifluoromethyl)phenyl]methyl}-2,3,6,7-tetrahydro-1H-purin-8-yl)amino]cyclopentane-1-carboxylic acid] | 1 to 5
3 | Cn1c(Nc2cccc(CCC(=O)O)c2)nc2c1c(=O)n(Cc1ccc(Cl)c(Cl)c1)c(=O)n2C [Example 291, 3-(3-(1-(3,4-dichlorobenzyl)-3,7-dimethyl-2,6-dioxo-2,3,6,7-tetrahydro-1H-purin-8-ylamino)phenyl)propanoic acid] | 0.01 to 1
4 | C[C@@H](N)c1nc2c(c(=O)n(Cc3cc4c(Cl)cccc4[nH]3)c(=O)n2C)n1C (single isomer, unassigned) [Example 436, (R)-8-(1-aminoethyl)-14(4-chloro-1H-indol-2-yl)methyl)-3,7-dimethyl-1H-purine-2,6(3H,7H)-dione or (S)-8-(1-aminoethyl)-1-((4-chloro-1H-indol-2-yl)methyl)-3,7-dimethyl-1H-purine-2,6(3H,7H)-dione] | 0.01 to 1
5 | Cn1c(Nc2ccnc([C@@H]3C[C@H]3C(=O)O)c2)nc2c1c(=O)n(Cc1cc3c(Cl)cccc3[nH]1)c(=O)n2C (single isomer, unassigned) [Example 322, (1R,2R)-2-(4-((1-((4-chloro-1H-indol-2-yl)methyl)-3,7-dimethyl-2,6-dioxo-2,3,6,7-tetrahydro-1H-purin-8-yl)amino)pyridin-2-yl)cyclopropanecarboxylic acid or (1S,2S)-2-(4-((1-((4-chloro-1H-indol-2-yl)methyl)-3,7-dimethyl-2,6-dioxo-2,3,6,7-tetrahydro-1H-purin-8-yl)amino)pyridin-2-yl)cyclopropanecarboxylic acid] | 0.01 to 1
6 | Cn1c(Nc2ccncc2)nc2c1c(=O)n(Cc1cc3cnccc3[nH]1)c(=O)n2C [Example 460, 1-((1H-pyrrolo[3,2-c]pyridin-2-yl)methyl)-3,7-dimethyl-8-(pyridin-4-ylamino)-1H-purine-2,6(3H,7H)-dione] | 0.01 to 1
7 | Cc1ccc2[nH]c(Cn3c(=O)c4c(nc(CCO)n4C)n(C)c3=O)cc2c1 [Example 210, 8-(2-hydroxyethyl)-3,7-dimethyl-1-((5-methyl-1H-indol-2-yl)methyl)-1H-purine-2,6(3H,7H)-dione] | 1 to 5
8 | Cc1ccc2[nH]c(Cn3c(=O)c4c(nc(N5CC(O)C5)n4C)n(C)c3=O)cc2c1 [Example 194, 8-(3-hydroxyazetidin-1-yl)-3,7-dimethyl-1-((5-methyl-1H-indol-2-yl)methyl)-1H-purine-2,6(3H,7H)-dione] | 1 to 5

The next lines start with the values.

Row | IC50 [µM] | Structure (SMILES)
9 | 0.01 to 1 | Cn1c(CCN)nc2c1c(=O)n(Cc1cc3c(Cl)cccc3[nH]1)c(=O)n2C [Example 386, 8-(2-aminoethyl)-1-((4-chloro-1H-indol-2-yl)methyl)-3,7-dimethyl-1H-purine-2,6(3H,7H)-dione]
10 | 0.01 to 1 | Cn1c(N[C@H]2CCC(=O)NC2)nc2c1c(=O)n(Cc1ccc(Cl)c(Cl)c1)c(=O)n2C (single isomer, unassigned) [Example 83, (5)-1-(3,4-dichlorobenzyl)-3,7-dimethyl-8-(6-oxopiperidin-3-ylamino)-1H-purine-2,6(3H,7H)-dione or (R)-1-(3,4-dichlorobenzyl)-3,7-dimethyl-8-(6-oxopiperidin-3-ylamino)-1H-purine-2,6(3H,7H)-dione]
11 | 0.01 to 1 | Cn1c(N[C@H]2CC[C@H](C(=O)O)CC2)nc2c1c(=O)n(Cc1ccc(Cl)c(Cl)c1)c(=O)n2C [Example 272, (±)-trans-4-[[1-[(3,4-dichlorophenyl)methyl]-3,7-dimethyl-2,6-dioxo-purin-8-yl]amino]cyclohexanecarboxylic acid]
12 | 0.01 to 1 | Cn1c(Nc2ccnc(CCC(=O)N3CCCCC3)n2)nc2c1c(=O)n(Cc1cc3c(Cl)cccc3[nH]1)c(=O)n2C [Example 406, 1-((4-chloro-1H-indol-2-yl)methyl)-3,7-dimethyl-8-(2-(3-oxo-3-(piperidin-1-yl)propyl)pyrimidin-4-ylamino)-1H-purine-2,6(3H,7H)-dione]
13 | 0.01 to 1 | CN(C(=O)CCc1nccc(Nc2nc3c(c(=O)n(Cc4cc5c(Cl)cccc5[nH]4)c(=O)n3C)n2C)n1)C1CC1 [Example 414, 3-(4-(1-((4-chloro-1H-indol-2-yl)methyl)-3,7-dimethyl-2,6-dioxo-2,3,6,7-tetrahydro-1H-purin-8-ylamino)pyrimidin-2-yl)-N-cyclopropyl-N-methylpropanamide]
